Series [1] addresses T1, human liver GK (GST-hLGK1) (Homo sapiens, UniProt P35557).
T1 construct: with a BamHI site added to immediately before the initiation codon; made in house; host or cells: Escherichia coli BL21 (Stratagene), plasmid pGEX6P-2/hLGK1
T1 sequence (P35557 1-464 isoform P35557-3): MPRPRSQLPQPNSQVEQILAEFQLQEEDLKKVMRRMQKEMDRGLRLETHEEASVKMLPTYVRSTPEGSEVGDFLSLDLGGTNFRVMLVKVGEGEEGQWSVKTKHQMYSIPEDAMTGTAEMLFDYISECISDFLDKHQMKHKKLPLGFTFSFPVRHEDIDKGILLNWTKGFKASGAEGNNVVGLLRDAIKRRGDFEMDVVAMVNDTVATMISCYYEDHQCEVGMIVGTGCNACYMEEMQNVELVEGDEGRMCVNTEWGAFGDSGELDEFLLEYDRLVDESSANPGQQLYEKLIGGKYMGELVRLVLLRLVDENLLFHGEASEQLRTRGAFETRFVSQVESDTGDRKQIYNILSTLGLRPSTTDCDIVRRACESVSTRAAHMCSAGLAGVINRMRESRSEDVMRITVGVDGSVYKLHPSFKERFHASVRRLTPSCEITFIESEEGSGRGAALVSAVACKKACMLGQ
Description: Determination of GK activity value (Mant-ATP to Mant-ADP conversion, capillary electrophoresis). It counts as biochemical. Conditions: reaction started with 25 mM D-glucose solution, 37° C., 60 min, concentration at midpoint between maximum activity value and control group activity value. How it is done:
Plasmid DNA to be used for the expression of a protein (GST-hLGK1) containing GST (Glutathione S-transferase) added to the amino terminal of human liver GK in Escherichia coli was prepared as follows.
First, PCR was performed using human liver cDNA (Marathon Ready cDNA, Clontech Laboratories, Inc.) as a template and two kinds of synthetic DNAs (5′-[…]-3′ (SEQ ID NO: 1) and 5′-[…]-3′ (SEQ ID NO: 2)), and the obtained DNA fragment was closed using a TOPO TA Cloning Kit (Invitrogen Corporation). PCR was performed using the obtained plasmid DNA as a template and a synthetic DNA (5′-[…] CAGAG-3′ (SEQ ID NO: 3)) with a BamHI site added to immediately before the initiation codon, and a synthetic DNA (5′-[…]-3′ (SEQ ID NO: 4)) with an EcoRI site added to immediately after the stop codon. The obtained DNA fragment was subcloned to pGEX6P-2 (Amersham Biosciences K.K.) cleaved with BamHI and EcoRI to give a plasmid (pGEX6P-2/hLGK1) for expression of human liver GK.
BL21 strain (Stratagene) transformed with pGEX6P-2/hLGK1 obtained in (1) was cultured with shaking at 37° C. for 14 hr in a 200 ml Erlenmeyer flask containing 50 ml of 100 μg/ml ampicillin-containing LB medium. The culture medium (25 ml) was diluted with 225 ml of 100 μg/ml ampicillin-containing LB medium, and further cultured with shaking at 37° C. for 1 hr in a 1 L Erlenmeyer flask. After culture, the Erlenmeyer flask was cooled on ice, 125 μL of 100 mM isopropyl-thio-β-D-galactopyranoside (IPTG) was added (final concentration 50 μM), and cultured at 17° C. for 20 hr. The culture medium was centrifuged, and the obtained fungus was disrupted by ultrasonication. The object protein (GST-hLGK1) was purified from the supernatant using Glutathione Sepharose 4B (Amersham Biosciences K.K.).
A solution (5 μL) of test compound in 50% dimethyl sulfoxide was added to each well of 384 well black plate (Nalge Nunc International K.K.). Then, a solution (35 μL) obtained by diluting GST-hLGK1 obtained in (2) with measurement buffer (containing 50 mM HEPES (pH 7.4), 200 mM KCl, 5 mM MgCl2, 2.5 mM DTT and 50 μM 2′-(or-3′)-O—(N-methylanthraniloyl)adenosine 5′-triphosphate (Mant-ATP) (Jena Bioscience GmbH)) to 6 μg/mL was added to each well.
Each well was stood at 37° C. for 10 min, and 25 mM D-glucose solution (10 μL) was added to start the reaction.
Each well after the reaction was stood at 37° C. for 60 min, and the reaction was quenched by adding 25 μL of a quenching solution (containing 200 mM HEPES (pH 7.4), 20 mM MgCl2, 200 mM EDTA, 0.03% Triton-X 100, 0.3% Coating 3 reagent (Caliper Life Sciences, Inc.)).
2′-(or -3′)-O—(N-methylanthraniloyl)adenosine 5′-triphosphate (Mant-ATP, substrate) and Mant-ADP (reaction resultant product) were separated from each well after the reaction by a microchip type capillary electrophoresis apparatus 250 HTS (Caliper Life Sciences, Inc.). The reaction rate [(reaction resultant product peak height)/(reaction resultant product peak height+substrate peak height)×100(%)] was calculated from the ratio of the substrate peak height and reaction resultant product peak height obtained by fluorescence detection (excitation wavelength 355 nm, measurement wavelength 460 nm) and used as the index of GK activity.
3.5 As a control group, the reaction rate was calculated in the same manner as above except that “solution in 50% dimethyl sulfoxide (without test compound)” was used instead of “solution of test compound in 50% dimethyl sulfoxide”.
A concentration dependency curve of the test compound was drawn with the percentage obtained by dividing the reaction rate of the well added with the test compound (test compound addition group) by the reaction rate of the control group was taken as the GK activity value of the test compound, and the concentration of the test compound at the midpoint between the maximum activity value of the test compound addition group and the control group activity value is shown as EC50 value.

This passage reports EC50 and melting point results from patent US8557805B2, “Fused ring compound and use thereof” (Takeda Pharmaceutical Company Limited, priority 2008, dated 2013).

As a reminder, the EC50 is the midpoint of the concentration-response curve. Low readings indicate greater potency, high ones weaker potency. By melting point is commonly meant the temperature, or range, at which the solid turns liquid.

`CS(=O)(=O)c1ccc(Oc2cc(OC3CCOCC3)c3[nH]c(C4=NCC(CC(N)=O)S4)cc3c2)cn1` (single isomer, unassigned) [Example 32, 2-{2-[5-{[6-(Methylsulfonyl)pyridin-3-yl]oxy}-7-(tetrahydro-2H-pyran-4-yloxy)-1H-indol-2-yl]-4,5-dihydro-1,3-thiazol-5-yl}acetamide] showed an EC50 in series [1] of 16 nM.
`CS(=O)(=O)c1ccc(Oc2cc(OC3CCOCC3)c3[nH]c(C4=NCC(CC(N)=O)S4)cc3c2)cn1` (single isomer, unassigned) [Example 33, 2-{2-[5-{[6-(Methylsulfonyl)pyridin-3-yl]oxy}-7-(tetrahydro-2H-pyran-4-yloxy)-1H-indol-2-yl]-4,5-dihydro-1,3-thiazol-5-yl}acetamide] came in with an EC50 in series [1] of 26 nM.
Still for that read-out and setting: then `CNC(=O)CC1CN=C(c2cc3cc(Oc4ccc(S(C)(=O)=O)nc4)cc(OC4CCOCC4)c3[nH]2)S1` (single isomer, unassigned) [Example 35, N-Methyl-2-{2-[5-{[6-(methylsulfonyl)pyridin-3-yl]oxy}-7-(tetrahydro-2H-pyran-4-yloxy)-1H-indol-2-yl]-4,5-dihydro-1,3-thiazol-5-yl}acetamide], with 31 nM; and `CNC(=O)CC1CN=C(c2cc3cc(Oc4ccc(S(C)(=O)=O)nc4)cc(OC4CCOCC4)c3[nH]2)S1` (single isomer, unassigned) [Example 36, N-Methyl-2-{2-[5-{[6-(methylsulfonyl)pyridin-3-yl]oxy}-7-(tetrahydro-2H-pyran-4-yloxy)-1H-indol-2-yl]-4,5-dihydro-1,3-thiazol-5-yl}acetamide], with 16 nM.
The same measure, in the same setting: then `CN(C)C(=O)CC1CN=C(c2cc3cc(Oc4ccc(S(C)(=O)=O)nc4)ccc3[nH]2)S1` (single isomer, unassigned) [Example 65, N,N-Dimethyl-2-[2-(5-{[6-(methylsulfonyl)pyridin-3-yl]oxy}-1H-indol-2-yl)-4,5-dihydro-1,3-thiazol-5-yl]acetamide], with 66 nM.
The same measure, in the same setting: then `COCCNC(=O)CC1CN=C(c2cc3cc(Oc4ccc(S(C)(=O)=O)nc4)ccc3[nH]2)S1` (single isomer, unassigned) [Example 67, N-(2-Methoxyethyl)-2-[2-(5-{[6-(methylsulfonyl)pyridin-3-yl]oxy}-1H-indol-2-yl)-4,5-dihydro-1,3-thiazol-5-yl]acetamide], with 89 nM.
For the molecule `CS(=O)(=O)c1ccc(Oc2ccc3[nH]c(C4=NCC(CC(=O)N5CCOCC5)S4)cc3c2)cn1` (single isomer, unassigned) [Example 69, 5-{[6-(Methylsulfonyl)pyridin-3-yl]oxy}-2-[5-(2-morpholin-4-yl-2-oxoethyl)-4,5-dihydro-1,3-thiazol-2-yl]-1H-indole], the melting point lay within 167 to 168 °C. The molecule further showed an EC50 in series [1] of 28 nM.
`CNC(=O)CC1CN=C(c2cc3cc(Oc4ccc(S(C)(=O)=O)nc4)ccc3[nH]2)S1` (single isomer, unassigned) [Example 78, N-Methyl-2-[2-(5-{[6-(methylsulfonyl)pyridin-3-yl]oxy}-1H-indol-2-yl)-4,5-dihydro-1,3-thiazol-5-yl]acetamide] had a melting point of 178 to 180 °C. The molecule further had an EC50 in series [1] of 80 nM.
The corresponding values for `CS(=O)(=O)c1ccc(Oc2cc(OC3CCOCC3)c3[nH]c(C4=NCC(CCO)S4)cc3c2)cc1` (centres unmarked) [Example 2, 2-(2-{5-[4-(Methylsulfonyl)phenoxy]-7-(tetrahydro-2H-pyran-4-yloxy)-1H-indol-2-yl}-4,5-dihydro-1,3-thiazol-5-yl)ethanol] are 116 to 117 °C and 18 nM.
For `CC(C)(O)CC1CN=C(c2cc3cc(Oc4ccc(S(C)(=O)=O)cc4)cc(OC4CCOCC4)c3[nH]2)S1` (centres unmarked) [Example 3, 2-Methyl-1-(2-{5-[4-(methylsulfonyl)phenoxy]-7-(tetrahydro-2H-pyran-4-yloxy)-1H-indol-2-yl}-4,5-dihydro-1,3-thiazol-5-yl)propan-2-ol] the same measures were 163 to 164 °C and 15 nM.
Molecule `COCc1ccc(Oc2cc(OC3CCOCC3)c3[nH]c(C4=NCC(CCO)S4)cc3c2)cn1` (centres unmarked) [Example 7, 2-{2-[5-{[6-(Methoxymethyl)pyridin-3-yl]oxy}-7-(tetrahydro-2H-pyran-4-yloxy)-1H-indol-2-yl]-4,5-dihydro-1,3-thiazol-5-yl}ethanol] showed an EC50 in series [1] of 14 nM.
On to `COCc1ccc(Oc2cc(OC3CCOCC3)c3[nH]c(C4=NCC(CC(C)(C)O)S4)cc3c2)cn1` (centres unmarked) [Example 8, 1-{2-[5-{[6-(Methoxymethyl)pyridin-3-yl]oxy}-7-(tetrahydro-2H-pyran-4-yloxy)-1H-indol-2-yl]-4,5-dihydro-1,3-thiazol-5-yl}-2-methylpropan-2-ol], for which the melting point lay within 108 to 110 °C. The molecule also yielded an EC50 in series [1] of 18 nM.
The corresponding values for `CC(C)(O)CC1CN=C(c2cc3cc(Oc4ccc(S(C)(=O)=O)cn4)cc(OC4CCOCC4)c3[nH]2)S1` (centres unmarked) [Example 14, 2-Methyl-1-{2-[5-{[5-(methylsulfonyl)pyridin-2-yl]oxy}-7-(tetrahydro-2H-pyran-4-yloxy)-1H-indol-2-yl]-4,5-dihydro-1,3-thiazol-5-yl}propan-2-ol] are 129 to 130 °C and 61 nM.
Molecule `CNC(=O)CC1CN=C(c2cc3cc(Oc4ccc(S(C)(=O)=O)cn4)cc(OC4CCOCC4)c3[nH]2)S1` (centres unmarked) [Example 17, N-Methyl-2-{2-[5-{[5-(methylsulfonyl)pyridin-2-yl]oxy}-7-(tetrahydro-2H-pyran-4-yloxy)-1H-indol-2-yl]-4,5-dihydro-1,3-thiazol-5-yl}acetamide] gave a melting point of 170 to 172 °C. The molecule further returned an EC50 in series [1] of 90 nM.
On to `COCCOCc1ccc(Oc2cc(OC3CCOCC3)c3[nH]c(C4=NCC(CCO)S4)cc3c2)cn1` (centres unmarked) [Example 20, 2-{2-[5-({6-[(2-Methoxyethoxy)methyl]pyridin-3-yl}oxy)-7-(tetrahydro-2H-pyran-4-yloxy)-1H-indol-2-yl]-4,5-dihydro-1,3-thiazol-5-yl}ethanol], for which a half-maximal effect in series [1] (EC50) was put at 27 nM.
For the molecule `CS(=O)(=O)Cc1ccc(Oc2cc(OC3CCOCC3)c3[nH]c(C4=NCC(CCO)S4)cc3c2)cn1` (centres unmarked) [Example 24, 2-{2-[5-({6-[(Methylsulfonyl)methyl]pyridin-3-yl}oxy)-7-(tetrahydro-2H-pyran-4-yloxy)-1H-indol-2-yl]-4,5-dihydro-1,3-thiazol-5-yl}ethanol], a half-maximal response in series [1] (EC50) required 19 nM.
